From patent US5698411A, “Method for determining activity of enzymes in metabolically active whole cells” (priority 1995, dated 1997)

Columns and labels:
[1] = system: granulocytes; test: aberrant enzyme activities in febrile children, granulocytes (Table 7); assay type: cell-based, human
[2] = system: monocytes; test: enzyme activity with fluorogenic substrate, normal monocytes (Table 3A); assay type: cell-based, human
[3] = system: lymphocytes; test: aberrant enzyme activities in febrile children, lymphocytes (Table 7); assay type: cell-based, human
[4] = system: erythrocytes; test: enzyme activity with fluorogenic substrate, normal erythrocytes (Table 3B); assay type: cell-based, human
[5] = system: monocytes; test: aberrant enzyme activities in febrile children, monocytes (Table 7); assay type: cell-based, human
[6] = system: lymphocytes; test: enzyme activity with fluorogenic substrate, normal lymphocytes (Table 3A); assay type: cell-based, human
[7] = system: granulocytes; test: enzyme activity with fluorogenic substrate, normal granulocytes (Table 3A); assay type: cell-based, human
[8] = system: substituted rhodamine 110 substrates; test: modulator effect on substituted rhodamine 110 substrates; assay type: biochemical
Description: Modulators are components used to […] the sensitivity of the enzyme for the leaving group. The modulators speed up or slow down the activity of an enzyme by changing the active site. […] Preferred modulators for particular enzymes are included in Table 1.

[9] = system: lymphocytes; test: peptidase activity in leukemia and non-leukemia patients, lymphocytes (Table 6C); assay type: cell-based, human; set-up: unit not given here
[10] = system: granulocytes; test: peptidase activity in leukemia and non-leukemia patients, granulocytes (Table 6C); assay type: cell-based, human; set-up: unit not given here
[11] = system: metabolically active whole cell; test: substrate panel in normals and HIV + patients, TB infection (Table 4); assay type: cell-based, human; set-up: unit not given here
Description: A panel of assay compounds are assembled consisting of Ala-aminopeptidase and Lys-aminopeptidase, Dipeptidyl peptidase IV (Ala-Ala)2 rhodamine 110 and Cathepsin D to indicate possible TB infection in AIDS related cases.
A panel Of enzymatic substrates is performed consisting of Ala-aminopeptidase and Lys-aminopeptidase, Dipeptidyl peptidase IV (Ala-Ala)2 rhodamine 110 and Cathepsin D to indicate possible TB infection in AIDS related cases.

CC(=O)Oc1ccc2c(c1)Oc1cc(OC(C)=O)ccc1C21OC(=O)c2ccccc21 [FDA, fluorescein diacetate, reference compound]
aberrant enzyme activity, GRANS ([1]; P88 Enteritis): .smallcircle.
aberrant enzyme activity, GRANS ([1]; P99 Viral Syndrome): .smallcircle.
aberrant enzyme activity, GRANS ([1]; P102 UTI): .smallcircle.
NORMAL LEUKOCYTE ENZYME ACTIVITY MONOS Mean [2]: 66.25
aberrant enzyme activity, LYMPHS ([3]; P88 Enteritis): .smallcircle.
aberrant enzyme activity, LYMPHS ([3]; P97 Pyelonephritis): .smallcircle.
aberrant enzyme activity, LYMPHS ([3]; P99 Viral Syndrome): .smallcircle.
aberrant enzyme activity, LYMPHS ([3]; P102 UTI): .smallcircle.
NORMAL E[…] ACTIVITY MEAN [4]: 0.126
aberrant enzyme activity, MONOS ([5]; P88 Enteritis): .smallcircle.
aberrant enzyme activity, MONOS ([5]; P99 Viral Syndrome): .smallcircle.
aberrant enzyme activity, MONOS ([5]; P102 UTI): .smallcircle.
NORMAL LEUKOCYTE ENZYME ACTIVITY LYMPHS Mean [6]: 13.38

CC(=O)Oc1cc2c(cc1Cl)C(c1ccccc1C(=O)O)c1cc(Cl)c(OC(C)=O)cc1O2 [DCFH-DA MES, reference compound]
aberrant enzyme activity, GRANS ([1]; P88 Enteritis): .smallcircle.
aberrant enzyme activity, GRANS ([1]; P89 Viral Stomatitis): + (>0.25 Increase over normal range)
aberrant enzyme activity, GRANS ([1]; P92 Adenitis): + (>0.25 Increase over normal range)
aberrant enzyme activity, GRANS ([1]; P95 Viral Syndrome): + (>0.25 Increase over normal range)
aberrant enzyme activity, GRANS ([1]; P96 Viral Syndrome): + (>0.25 Increase over normal range)
aberrant enzyme activity, GRANS ([1]; P97 Pyelonephritis): + (>0.25 Increase over normal range)
aberrant enzyme activity, GRANS ([1]; P99 Viral Syndrome): .smallcircle.
aberrant enzyme activity, GRANS ([1]; P101 Fever -- Unknown Origin): + (>0.25 Increase over normal range)
aberrant enzyme activity, GRANS ([1]; P102 UTI): .smallcircle.
aberrant enzyme activity, GRANS ([1]; P103 Viral Syndrome): + (>0.25 Increase over normal range)
NORMAL LEUKOCYTE ENZYME ACTIVITY MONOS Mean [2]: 12.28
aberrant enzyme activity, LYMPHS ([3]; P88 Enteritis): .smallcircle.
aberrant enzyme activity, LYMPHS ([3]; P89 Viral Stomatitis): + (>0.25 Increase over normal range)
aberrant enzyme activity, LYMPHS ([3]; P92 Adenitis): + (>0.25 Increase over normal range)
aberrant enzyme activity, LYMPHS ([3]; P95 Viral Syndrome): + (>0.25 Increase over normal range)
aberrant enzyme activity, LYMPHS ([3]; P96 Viral Syndrome): + (>0.25 Increase over normal range)
aberrant enzyme activity, LYMPHS ([3]; P97 Pyelonephritis): .smallcircle.
aberrant enzyme activity, LYMPHS ([3]; P99 Viral Syndrome): .smallcircle.
aberrant enzyme activity, LYMPHS ([3]; P101 Fever -- Unknown Origin): + (>0.25 Increase over normal range)
aberrant enzyme activity, LYMPHS ([3]; P102 UTI): .smallcircle.
aberrant enzyme activity, LYMPHS ([3]; P103 Viral Syndrome): + (>0.25 Increase over normal range)
NORMAL E[…] ACTIVITY MEAN [4]: 0.286
NORMAL LEUKOCYTE ENZYME ACTIVITY GRANS Mean [7]: 7.49
aberrant enzyme activity, MONOS ([5]; P88 Enteritis): .smallcircle.
aberrant enzyme activity, MONOS ([5]; P89 Viral Stomatitis): + (>0.25 Increase over normal range)
aberrant enzyme activity, MONOS ([5]; P92 Adenitis): + (>0.25 Increase over normal range)
aberrant enzyme activity, MONOS ([5]; P95 Viral Syndrome): + (>0.25 Increase over normal range)
aberrant enzyme activity, MONOS ([5]; P96 Viral Syndrome): + (>0.25 Increase over normal range)
aberrant enzyme activity, MONOS ([5]; P97 Pyelonephritis): + (>0.25 Increase over normal range)
aberrant enzyme activity, MONOS ([5]; P99 Viral Syndrome): .smallcircle.
aberrant enzyme activity, MONOS ([5]; P101 Fever -- Unknown Origin): + (>0.25 Increase over normal range)
aberrant enzyme activity, MONOS ([5]; P102 UTI): .smallcircle.
aberrant enzyme activity, MONOS ([5]; P103 Viral Syndrome): + (>0.25 Increase over normal range)
NORMAL LEUKOCYTE ENZYME ACTIVITY LYMPHS Mean [6]: 4.11

(Z-Thr--Pro)2 Rho 110 [Z-TP 8.7]
aberrant enzyme activity, GRANS ([1]; P92 Adenitis): .smallcircle.
aberrant enzyme activity, GRANS ([1]; P97 Pyelonephritis): .smallcircle.
aberrant enzyme activity, GRANS ([1]; P103 Viral Syndrome): .smallcircle.
NORMAL LEUKOCYTE ENZYME ACTIVITY MONOS Mean [2]: 76.00
aberrant enzyme activity, LYMPHS ([3]; P92 Adenitis): - (>0.25 Decrease over normal range)
aberrant enzyme activity, LYMPHS ([3]; P97 Pyelonephritis): .smallcircle.
aberrant enzyme activity, LYMPHS ([3]; P103 Viral Syndrome): .smallcircle.
NORMAL E[…] ACTIVITY MEAN [4]: 0.161
NORMAL LEUKOCYTE ENZYME ACTIVITY GRANS Mean [7]: 82.35
aberrant enzyme activity, MONOS ([5]; P92 Adenitis): - (>0.25 Decrease over normal range)
aberrant enzyme activity, MONOS ([5]; P97 Pyelonephritis): .smallcircle.
aberrant enzyme activity, MONOS ([5]; P103 Viral Syndrome): .smallcircle.
NORMAL LEUKOCYTE ENZYME ACTIVITY LYMPHS Mean [6]: 35.01

O[C@H](CS)[C@H](O)CS [Dithiothreitol (DTT), Dithiothreitol]
modulator effect [8]: effective modulator

O=C1OC2(c3ccc(OC4O[C@H](CO)[C@@H](O)[C@H](O)[C@H]4O)cc3Oc3cc(OC4O[C@H](CO)[C@@H](O)[C@H](O)[C@H]4O)ccc32)c2ccccc21 (stereo partly drawn) [DIGLUC (FL)]
NORMAL E[…] ACTIVITY MEAN [4]: 0.110
NORMAL LEUKOCYTE ENZYME ACTIVITY GRANS Mean [7]: 0.45
NORMAL LEUKOCYTE ENZYME ACTIVITY LYMPHS Mean [6]: 0.23

O[C@H](CS)[C@@H](O)CS [dithioerythritol (DTE), dithioerythritol]
sensitivity of the leaving group for the enzyme ([8]; 1 mM, Ala-Gly and Leu-Gly substrates): does not change the sensitivity
sensitivity of the substituted rhodamine 110 substrates ([8]; 1 mM, Pro, Gly, Gln-Ser, Val-Lys-Val-Lys, Ala-Ala, Ala-Ala-Ala-Ala substrates): decreases the sensitivity

(Gly)2 Rho 110
aberrant enzyme activity, GRANS ([1]; P88 Enteritis): .smallcircle.
aberrant enzyme activity, GRANS ([1]; P89 Viral Stomatitis): .smallcircle.
aberrant enzyme activity, GRANS ([1]; P92 Adenitis): .smallcircle.
aberrant enzyme activity, GRANS ([1]; P97 Pyelonephritis): .smallcircle.
aberrant enzyme activity, GRANS ([1]; P102 UTI): .smallcircle.
aberrant enzyme activity, GRANS ([1]; P103 Viral Syndrome): .smallcircle.
NORMAL LEUKOCYTE ENZYME ACTIVITY MONOS Mean [2]: 61.47
aberrant enzyme activity, LYMPHS ([3]; P88 Enteritis): .smallcircle.
aberrant enzyme activity, LYMPHS ([3]; P89 Viral Stomatitis): - (>0.25 Decrease over normal range)
aberrant enzyme activity, LYMPHS ([3]; P92 Adenitis): .smallcircle.
aberrant enzyme activity, LYMPHS ([3]; P97 Pyelonephritis): .smallcircle.
aberrant enzyme activity, LYMPHS ([3]; P102 UTI): .smallcircle.
aberrant enzyme activity, LYMPHS ([3]; P103 Viral Syndrome): .smallcircle.
enzyme activity, Lymphs ([9]; J4 11/21/91 acute leuk.): 14.02
enzyme activity, Lymphs ([9]; J4 12/2/91 A L): 27.32
enzyme activity, Lymphs ([9]; J4 12/3/91 acute leuk.): 31.51
enzyme activity, Lymphs ([9]; J5 11/27/91 A M L): 28.36
enzyme activity, Lymphs ([9]; J19 11/27/91 C L L): 11.39
enzyme activity, Lymphs ([9]; J22 12/2/91 A M L): 24.50
enzyme activity, Lymphs ([9]; J22 12/9/91 A M L): 27.14
enzyme activity, Lymphs ([9]; N191 normal): 43.57
enzyme activity, Lymphs ([9]; N192 normal): 37.47
enzyme activity, Lymphs ([9]; N193 normal): 39.30
enzyme activity, Lymphs ([9]; N194 normal): 39.76
enzyme activity, Lymphs ([9]; N195 normal): 48.18
enzyme activity, Lymphs ([9]; N197 normal): 42.96
enzyme activity, Lymphs ([9]; N199 normal): 30.68
enzyme activity, Lymphs ([9]; N200 normal): 42.28
enzyme activity, Lymphs ([9]; N201 normal): 45.32
enzyme activity, Lymphs ([9]; N202 normal): 44.55
enzyme activity, Lymphs ([9]; N206 normal): 55.56
enzyme activity, Lymphs ([9]; P68 tachycardia): 59.29
enzyme activity, Lymphs ([9]; P69 pancreatic CA): 67.38
enzyme activity, Lymphs ([9]; P70 cirrhosis/hemobilia): 54.84
enzyme activity, Lymphs ([9]; P71 ac. pyelonephritis): 41.93
enzyme activity, Grans ([10]; J4 11/21/91 acute leuk.): 27.79
enzyme activity, Grans ([10]; J4 12/2/91 A L): 47.74
enzyme activity, Grans ([10]; J4 12/3/91 acute leuk.): 48.53
enzyme activity, Grans ([10]; J5 11/27/91 A M L): 56.33
enzyme activity, Grans ([10]; J19 11/27/91 C L L): 48.80
enzyme activity, Grans ([10]; J22 12/2/91 A M L): 34.02
enzyme activity, Grans ([10]; J22 12/9/91 A M L): 38.47
enzyme activity, Grans ([10]; N191 normal): 73.20
enzyme activity, Grans ([10]; N192 normal): 48.67
enzyme activity, Grans ([10]; N193 normal): 63.33
enzyme activity, Grans ([10]; N194 normal): 60.30
enzyme activity, Grans ([10]; N195 normal): 79.13
enzyme activity, Grans ([10]; N197 normal): 76.88
enzyme activity, Grans ([10]; N199 normal): 45.00
enzyme activity, Grans ([10]; N200 normal): 59.39
enzyme activity, Grans ([10]; N201 normal): 75.48
enzyme activity, Grans ([10]; N202 normal): 66.22
enzyme activity, Grans ([10]; N206 normal): 91.93
enzyme activity, Grans ([10]; P68 tachycardia): 100.00
enzyme activity, Grans ([10]; P69 pancreatic CA): 88.04
enzyme activity, Grans ([10]; P70 cirrhosis/hemobilia): 88.42
enzyme activity, Grans ([10]; P71 ac. pyelonephritis): 59.35
NORMAL LEUKOCYTE ENZYME ACTIVITY GRANS Mean [7]: 29.48
MEAN DELTA FL ([11]; HIV + PATIENTS): 62.4
MEAN DELTA FL ([11]; NORMALS): 101.1
aberrant enzyme activity, MONOS ([5]; P88 Enteritis): .smallcircle.
aberrant enzyme activity, MONOS ([5]; P89 Viral Stomatitis): .smallcircle.
aberrant enzyme activity, MONOS ([5]; P92 Adenitis): .smallcircle.
aberrant enzyme activity, MONOS ([5]; P97 Pyelonephritis): + (>0.25 Increase over normal range)
aberrant enzyme activity, MONOS ([5]; P103 Viral Syndrome): .smallcircle.
NORMAL LEUKOCYTE ENZYME ACTIVITY LYMPHS Mean [6]: 18.18
